Measurements taken from patent publication US20060223849A1, “Benzazole derivatives, compositions, and methods of use as beta-secretase inhibitors” (priority 2005, published 2006).

Tested on: HEK293 cells stably expressing wildtype human APP695 protein (HEK-APPwt cells)
Test: Aβ cell based assay (Aβ1-40 secretion, ELISA)
Details: 1 hr room temperature then five-hour incubation at 37° C., Aβ1-40 ELISA, DAPT as 100% inhibition reference, read-out: EC50, reduction of Aβ1-40 secretion in the cell based assay
Procedure: Aβ Cell Based Assay Procedure
In the following assay, the proteolytic activity of BACE in cells exposed to varying concentrations of a compound of interest is measured by observing the amount of Aβ1-40 secreted from HEK293 cells (Human Embryonic Kidney epithelial cell line) stably expressing either wildtype human APP695 protein (HEK-APPwt cells).
HEK-APPwt cells were grown in high glucose DMEM (Dulbecco's Modified Eagles Medium) with 4500 mg glucose/L,L-glutamine, NaHCO3, pyrdoxin HCl, 10 mM HEPES (4-(2-hydroxyethyl)-1-piperazineethanesulfonic acid) (pH 7.4), 0.1 mM NEAA (Non-essential Amino Acids) (GIBCO Cat#11140-050), 10% fetal bovine serum and 250 μg/ml hygromycin in T-225 flasks at 37° C. with CO2 and humidity control.
Test compounds were initially prepared in DMSO and diluted with DMEM media containing 2% FBS (Fetal bovine serum) and 0.05% Tween20. Ten standard compound solutions were prepared having a range of concentrations. The standard compound solutions were used to determine the EC50 of the test compound. The range of concentrations chosen may depend on the compound's predicted potency.
To prepare the cells for the assay, a flask containing HEK-APPwt cells were trypsinized briefly (1 mL trypsin), and once the cells detached, 4 mL of 10% FBS-DMEM was added to the flask. The detached cells were centrifuged at 900 rpm for 5 min to form a pellet.
The HEK-APPwt cell pellet was re-suspended with 10 mL DMEM media containing 2% FBS. 80 μL of the cell suspension was added to each well of a 96-well cell culture plate to give 100,000 cells/well. 10 μL of a standard compound solution was added to each well of the 96-well cell culture plate followed by 10 μL of Alamar blue solution. The cells were incubated at room temperature for 1 hr, followed by a five-hour incubation in the CO2 incubator at 37° C.
At the end of the incubation, the plates were removed from incubator, and the supernatant was collected. Aβ1-40 concentration in the medium was measured by using a commercial Aβ1-40 ELISA kit (IBL, Japan). Briefly, the ELISA plates were coated with anti-human Aβ35-40 mouse IgG monoclonal antibody. A horseradish peroxidase enzyme conjugated anti-human Aβ11-28 mouse IgG monoclone antibody was used for detection. The cell culture supernatant was diluted 1:4 fold with (EIA buffer+Protease inhibitor (buffer containing Protease Inhibitor (1 mL PI/30 mL buffer). A 100 μL aliquot of the diluted supernatant was added to each well of the ELISA plate and incubated for 6 hrs at 4° C. The ELISA plate was washed 8 times with phosphate buffered saline (PBS) containing 0.05% Tween 20.
A 100 μL of detection antibody was then added and incubated for 1 hour at 4° C. The plate was washed 8 times with PBS buffer containing 0.05% Tween 20 followed by addition of 100 μL of the substrate with the chromogen tetramethyl benzidine (TMB). The plate was incubated in the dark at room temperature for about 30 min and a stop solution (1N H2SO4) was added.
The intensity of the color developed was measured at 450 nm. The optical density at 450 nm (OD450) is proportional to the concentration of human Aβ1-40 secreted by the cell. As a reference, N—[N-(3,5-difluorophenacetyl-L-alanyl)]-S-phenylglycine t-butyl ester (DAPT, a γ-secretase inhibitor) was used to indicate 100% inhibition of BACE activity. Thus, the assay measures the ability of a compound of interest to reduce Aβ1-40 secretion. Compound potency was reported as the EC50 by calculating the percent inhibition at all concentration levels and the data were fit with non-linear curve fitting algorithm using in GraphPad Prism.

SMILES | EC50 [nM]
N#Cc1cccc(-c2cccc(C(=O)Nc3nc4c(C(=O)Nc5ncc[nH]5)cccc4[nH]3)n2)c1 [Example 343, 2-{[6-(3-cyano-phenyl)-pyridine-2-carbonyl]-amino}-1H-benzoimidazole-4-carboxylic acid (1H-imidazol-2-yl)-amide] | ≤ 2000
COc1ccc(CCNC(=O)c2cccc3nc(NC(=O)c4cc5ccccc5cn4)[nH]c23)cc1 [Example 176, Isoquinoline-3-carboxylic acid {7-[2-(4-methoxy-phenyl)-ethylcarbamoyl]-1H-benzoimidazol-2-yl}-amide] | ≤ 2000
